The record followed here is publication PMC12508063, “Chloroindazole based estrogen receptor β ligands with favorable pharmacokinetics promote functional remyelination and visual recovery” (Scientific Reports, 2025).

Series [1] relates to Human iPSC-derived OPCs (Tempo's iOligo). Put plainly: Differentiation of human iPSC-derived OPCs (Tempo iOligo), MBP. Type of series: cell-based. The note with it: human OLs, 10 nM, 18 days. The source says:
Mouse and Human primary cell cultures: Primary OPC/OL culture were isolated from the cortices of postnatal day 0–1 C57BL/6J mice of both sexes, using established protocols[11],[20],[21]. Mouse OPC and Neuronal Co-cultures: Primary neuronal cultures were established in Neurobasal medium with B27 and plated on poly-L-lysine-coated coverslips. After 12 days, OPCs were isolated, counted, and added to neuronal cultures and media was replaced with neuronal and proliferation media for 3 days, then switched to maturation media that maintained both neurons and OLs. Human iPSC-derived OPCs (Tempo’s iOligo™) were expanded, cryopreserved, and later plated on Matrigel-coated coverslips. After 3 days in growth medium, cells were treated for 3 weeks with T3 containing maturation medium. Differentiation into myelin-producing OLs was assessed using O4 (OL surface marker on pre-OLs) and myelin basic protein (MBP) immunohistochemistry. In all conditions compounds or vehicle were added to culture during differentiation for either 5 days (mouse) or 18 days (human). […]
Tempo’s iOligo (OPC) cells form branched bipolar and tripolar structures when cultured as a monolayer and express OL markers, including O4, NG2, and CNPase. […] After plating human OPCs and allowing two days of growth in expansion media, the culture medium was switched to T3 + maturation medium and evaluated for MBP expression (Fig. 8i). […]

Series [2] is described as follows: Liver microsome stability (mouse). A general note: Liver microsomes are vesicles of endoplasmic reticulum, rich in cytochrome P450 enzymes.
Series [3] in a line: Oral PK of K102 at 40 mg/kg in female mice. Type of series: in vivo, C57BL/6 mouse. The note with it: female mouse, PO 40 mg/kg, mean.
A further series relates to EAE mice optic tract. Nature of the series: Optic tract IHC in EAE. Type of series: in vivo, mouse. An excerpt:
Animal Perfusions, tissue preparation, and IHC: Mice were deeply anesthetized and euthanized with isoflurane and intracardially perfused with ice‐cold PBS followed by 10% formalin in PBS (Fisher Scientific, Hampton, NH). Eyes, optic nerves, and brain were collected and processed for IHC as previously described[23],[28]. Antibody details are listed in Supplementary Table S6.
Imaging and Quantification: Retina, optic nerve, and brain sections were imaged using an Olympus BX61 spinning disk confocal microscope with 10× and 40× objectives[23],[28]. Z-stack images were captured and processed using Slidebook 6 and cellSense software. Immunofluorescence intensity and cell counts were quantified using NIH ImageJ, and statistical analysis was performed with GraphPad Prism.
Treatment with K102 alleviated EAE-induced demyelination relative to vehicle-treated mice.
Perfusions, tissue preparation, and IHC: Mice were deeply anesthetized with isoflurane and intracardially perfused with ice‐cold PBS followed by 10% formalin in PBS (Fisher Scientific, Hampton, NH). Eyes, optic nerves, and brain were collected and processed for IHC as previously described(8, 9). Antibody details are listed in Supplementary Table S6.
Imaging and Quantification: Retina, optic nerve, and brain sections were imaged using an Olympus BX61 spinning disk confocal microscope equipped with 10x and 40x Super Apochromat objectives (Olympus America Inc., Cypress, CA) connected to a camera (Hamamatsu Orca‐R2). Z‐stack images were acquired, and projection images were compiled using Slidebook 6 and cellSense software (Intelligent Imaging Innovations Inc, Santa Monica, CA). Immunofluorescence intensity and cell numbers were assessed with NIH ImageJ software (v1. 50i http://rsb.info.nih.gov/ij/) and quantified. Results from all counts were analyzed in GraphPad Prism for statistical significance.

Series [4] can be described thus: Hepatocyte stability (mouse).
Series [5] can be described thus: Hepatocyte stability (human).
Series [6] in a line: Plasma protein binding (human).
For a further series, the target named is CYP2C19 (Homo sapiens, UniProt P33261). Put plainly: CYP inhibition. The settings on record: test compounds at 10 μM; substrate Mephenytoin.
Series [7] has as its system 1A2, 2B6, 2C9, 2C19, 2D6, and 3A4M/T. Put plainly: CYP inhibition panel summary. Type of series: in vitro ADME, human. The note with it: 10 µM.

Like-named read-outs stand apart in the source and are kept apart here.

By Cmax is commonly meant the maximum level reached in the sampled fluid or tissue. For orientation: Tmax means the time from dosing to the highest level.

Sequence of CYP2C19 (P33261 whole entry): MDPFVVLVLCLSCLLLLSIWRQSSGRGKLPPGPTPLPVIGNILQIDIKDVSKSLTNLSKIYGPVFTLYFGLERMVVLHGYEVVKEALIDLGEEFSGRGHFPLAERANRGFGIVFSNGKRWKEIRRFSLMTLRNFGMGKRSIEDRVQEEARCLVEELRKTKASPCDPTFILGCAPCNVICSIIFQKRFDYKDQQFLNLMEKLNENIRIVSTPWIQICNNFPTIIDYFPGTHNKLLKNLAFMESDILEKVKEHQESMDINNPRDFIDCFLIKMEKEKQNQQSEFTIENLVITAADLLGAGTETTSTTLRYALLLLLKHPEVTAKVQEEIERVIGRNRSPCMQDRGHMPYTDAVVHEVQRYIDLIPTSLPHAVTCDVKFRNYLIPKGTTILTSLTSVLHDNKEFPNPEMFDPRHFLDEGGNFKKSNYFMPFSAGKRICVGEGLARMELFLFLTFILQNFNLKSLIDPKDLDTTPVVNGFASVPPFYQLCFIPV

As to `Cc1cc(O)ccc1-n1nc2ccc(O)cc2c1Cl` [Compound K102, IndCl-o-Me], the “MBP levels vs vehicle control” value in series [1] is on record as “significantly increased”. In addition, in series [2] (30 min), the “Liver Microsome Stability (Mouse) % Remaining (30 min)” value was found to be 30.18%. Besides, in series [2] (mouse, microsomes), the “Liver Microsome Stability (Mouse) CLint” value came to 40.80 µL/min/mg protein and the “Liver Microsome Stability (Mouse) t1/2” value amounted to 17.12 min. In [3], this compound yielded an AUCExtr of 13.0%, an AUCInf of 855 ng·h/mL, an AUCInf/D of 21.4 kg·ng·h/mL/mg and an AUClast of 748 ng·h/mL. In series [3], the Cmax amounted to 945 ng/mL, the MRTInf turned out to be 248 min, the Tmax came out at 15 min and the t1/2 amounted to 256 min. In the series with EAE mice optic tract, the “GFAP, mean value” is recorded as “significantly reduced”; the “Iba1, mean value” is given as “significantly reduced”; the “MBP, mean value” was “alleviated”; the “NFM, mean value” is on record as “significantly increased”. Also, in the series on EAE mice optic tract, the “SARM1, mean value” is listed as “did not produce a significant change”. In addition, in the series on EAE mice optic tract (listed as 102), the “GFAP, mean value” stood at 14.14; the “Iba1, mean value” amounted to 9.623; the “MBP, mean value” is given as 27.62; the “NFM, mean value” was 18.64. Besides, the “SARM1, mean value” in the series on EAE mice optic tract (listed as 102) is reported as 11.45. Further, the “Hepatocyte Stability (Mouse) CLint” value in series [4] is 86.57 µL/min/mg protein. Also, the “Hepatocyte Stability (Mouse) t1/2” value in [4] (mouse, hepatocytes) is on record as 16.01 min. Besides, the “Hepatocyte Stability (Human) % Remaining (15 min)” value in series [5] (15 min) was 60.05%. Besides, the “Hepatocyte Stability (Human) CLint” value in [5] (human, hepatocytes) was determined as 72.12 µL/min/mg protein. For the same compound, the “Protein Binding (% Bound) Human” value in series [6] was found to be 97.08%. Also, the “CYP Inhibition Percentage CYP2C19” value at CYP2C19 is 50.50%.

For the compound `Oc1ccc(-n2nc3ccc(O)cc3c2Cl)c(O)c1` [Compound K110, IndCl-o-OH], the “CYP inhibition, all other isoforms of the panel” value in [7] is on record as less than 50%.
